System: Staphylococcus aureus (clinical isolate)
Assay: Fluorescence imaging of coated orthopaedic plates, screws and catheters implanted in a human cadaver ankle after incubation with S. aureus isolate or NaCl
Conditions: implants incubated with S. aureus, imaged 24 hours after implantation, excitation 710 nm, emission 800 nm
Text: Orthopaedic plates, screws and catheters were coated with the polymer coating with compositions according to step (g). For example a polymer coating 1 g (i) was coated onto orthopaedic plates, screws and catheters in a continuous process.
First a solution of the polymer prepared in Example 1 g (i) was made by dissolving the polymer coating in water and then the plate and catheter were drawn through the solution of the polymer coating at a rate of 1 to 2 meters/second into an infrared dying oven of approximately 1 meter in length at about 100° C. The objects were completely covered indicating the application of a substantially uniform coating. This process was done according to the standard procedures in U.S. Pat. No. 7,442,205, Stents and methods for preparing stents from wires having hydrogel coating layers thereon. […]
Imaging of the objects implanted according to example 6 was performed 24 hours after implantation using an intra-operative clinical multispectral fluorescence camera (T3-imaging system, SurgOptix BV, Groningen, The Netherlands) and the IVIS Spectrum (excitation: 710 nm, emission: 800 nm, acquisition time 5 s, binning 4, F-stop 2, FOV 21.2).
The results obtained from the IVIS Spectrum and IVIS Lumina II were analyzed with Living Image 4.2. […] Signal intensity was determined by drawing regions of interests (ROI's) and measuring average counts in these regions. […]

CC1(C)C(=CC=C2CCCC(C=CC3=[N+](CCCCCC(=O)[O-])c4ccc(S(=O)(=O)[O-])cc4C3(C)C)=C2Oc2ccc(S(=O)(=O)[O-])cc2)N(CCCCS(=O)(=O)[O-])c2ccc(S(=O)(=O)[O-])cc21.[Na+].[Na+].[Na+].[Na+] [IRDye 800CW]
near infrared signal (net counts, background corrected): 1×10^5±4.2×10^4 counts

From patent US20190224343A1, “CLEAVABLE COATING MATERIAL HAVING MICROBIAL FUNCTIONALITY” (ORIGINAL G B.V., priority 2012, published 2019)
